Data from the NIST ThermoML archive (doi:10.1021/je800110r).
± gives the expanded uncertainty stated by the source.

Settings: 323.15 K, Liquid, Vibrating tube method

## CCCCCCCCCC [decane]
13966 kPa
  mass density: 719 ± 2 kg/m3
13981 kPa
  mass density: 719.1 ± 2 kg/m3
14001 kPa
  mass density: 719 ± 2 kg/m3
14021 kPa
  mass density: 719 ± 2 kg/m3
14043 kPa
  mass density: 719 ± 2 kg/m3
14066 kPa
  mass density: 719.2 ± 2 kg/m3
14084 kPa
  mass density: 719.2 ± 2 kg/m3
14099 kPa
  mass density: 719.1 ± 2 kg/m3
14124 kPa
  mass density: 719.2 ± 2 kg/m3
14140 kPa
  mass density: 719.3 ± 2 kg/m3
14160 kPa
  mass density: 719.2 ± 2 kg/m3
14173 kPa
  mass density: 719.2 ± 2 kg/m3
14274 kPa
  mass density: 719.2 ± 2 kg/m3
14317 kPa
  mass density: 719.3 ± 2 kg/m3
14348 kPa
  mass density: 719.5 ± 2 kg/m3
14364 kPa
  mass density: 719.3 ± 2 kg/m3
14385 kPa
  mass density: 719.4 ± 2 kg/m3
14404 kPa
  mass density: 719.4 ± 2 kg/m3
14424 kPa
  mass density: 719.4 ± 2 kg/m3
14622 kPa
  mass density: 719.6 ± 2 kg/m3
14631 kPa
  mass density: 719.5 ± 2 kg/m3
14647 kPa
  mass density: 719.5 ± 2 kg/m3
14657 kPa
  mass density: 719.7 ± 2 kg/m3
14679 kPa
  mass density: 719.6 ± 2 kg/m3
14688 kPa
  mass density: 719.6 ± 2 kg/m3
14701 kPa
  mass density: 719.6 ± 2 kg/m3
14711 kPa
  mass density: 719.7 ± 2 kg/m3
14725 kPa
  mass density: 719.7 ± 2 kg/m3
14741 kPa
  mass density: 719.6 ± 2 kg/m3
14753 kPa
  mass density: 719.7 ± 2 kg/m3
15015 kPa
  mass density: 719.9 ± 2 kg/m3
15023 kPa
  mass density: 719.9 ± 2 kg/m3
15033 kPa
  mass density: 719.8 ± 2 kg/m3
15047 kPa
  mass density: 720 ± 2 kg/m3
15058 kPa
  mass density: 719.9 ± 2 kg/m3
15068 kPa
  mass density: 719.9 ± 2 kg/m3
15085 kPa
  mass density: 720 ± 2 kg/m3
15095 kPa
  mass density: 719.9 ± 2 kg/m3
15112 kPa
  mass density: 720 ± 2 kg/m3
15120 kPa
  mass density: 719.9 ± 2 kg/m3
15130 kPa
  mass density: 719.9 ± 2 kg/m3
15143 kPa
  mass density: 720.1 ± 2 kg/m3
15159 kPa
  mass density: 720 ± 2 kg/m3
15170 kPa
  mass density: 720 ± 2 kg/m3
15184 kPa
  mass density: 720 ± 2 kg/m3
15196 kPa
  mass density: 720.1 ± 2 kg/m3
15211 kPa
  mass density: 720 ± 2 kg/m3
15222 kPa
  mass density: 720 ± 2 kg/m3
15237 kPa
  mass density: 720 ± 2 kg/m3
15249 kPa
  mass density: 720 ± 2 kg/m3
15266 kPa
  mass density: 720.1 ± 2 kg/m3
15275 kPa
  mass density: 720.1 ± 2 kg/m3
15286 kPa
  mass density: 720 ± 2 kg/m3
15303 kPa
  mass density: 720.2 ± 2 kg/m3
15312 kPa
  mass density: 720.1 ± 2 kg/m3
15326 kPa
  mass density: 720.1 ± 2 kg/m3
15340 kPa
  mass density: 720.2 ± 2 kg/m3
15388 kPa
  mass density: 720.2 ± 2 kg/m3
15397 kPa
  mass density: 720.2 ± 2 kg/m3
15411 kPa
  mass density: 720.2 ± 2 kg/m3
15423 kPa
  mass density: 720.2 ± 2 kg/m3
15686 kPa
  mass density: 720.4 ± 2 kg/m3
15697 kPa
  mass density: 720.5 ± 2 kg/m3
15712 kPa
  mass density: 720.4 ± 2 kg/m3
15721 kPa
  mass density: 720.5 ± 2 kg/m3
16291 kPa
  mass density: 721 ± 2 kg/m3
16333 kPa
  mass density: 721 ± 2 kg/m3
16345 kPa
  mass density: 721.1 ± 2 kg/m3
16357 kPa
  mass density: 720.9 ± 2 kg/m3
16371 kPa
  mass density: 721.1 ± 2 kg/m3
16383 kPa
  mass density: 720.9 ± 2 kg/m3
16398 kPa
  mass density: 721.1 ± 2 kg/m3
16410 kPa
  mass density: 720.9 ± 2 kg/m3
16426 kPa
  mass density: 721.1 ± 2 kg/m3
16436 kPa
  mass density: 721.1 ± 2 kg/m3
16448 kPa
  mass density: 721.1 ± 2 kg/m3
16460 kPa
  mass density: 721.2 ± 2 kg/m3
16473 kPa
  mass density: 721 ± 2 kg/m3
16595 kPa
  mass density: 721.1 ± 2 kg/m3
16627 kPa
  mass density: 721.2 ± 2 kg/m3
16637 kPa
  mass density: 721.2 ± 2 kg/m3
16673 kPa
  mass density: 721.2 ± 2 kg/m3
16691 kPa
  mass density: 721.2 ± 2 kg/m3
16708 kPa
  mass density: 721.1 ± 2 kg/m3
16721 kPa
  mass density: 721.3 ± 2 kg/m3
16735 kPa
  mass density: 721.2 ± 2 kg/m3
16752 kPa
  mass density: 721.2 ± 2 kg/m3
16764 kPa
  mass density: 721.2 ± 2 kg/m3
16784 kPa
  mass density: 721.3 ± 2 kg/m3
16797 kPa
  mass density: 721.3 ± 2 kg/m3
16817 kPa
  mass density: 721.4 ± 2 kg/m3
16829 kPa
  mass density: 721.3 ± 2 kg/m3
16849 kPa
  mass density: 721.4 ± 2 kg/m3
16864 kPa
  mass density: 721.5 ± 2 kg/m3
16876 kPa
  mass density: 721.4 ± 2 kg/m3
16889 kPa
  mass density: 721.3 ± 2 kg/m3
16910 kPa
  mass density: 721.3 ± 2 kg/m3
16921 kPa
  mass density: 721.4 ± 2 kg/m3
16934 kPa
  mass density: 721.4 ± 2 kg/m3
16951 kPa
  mass density: 721.4 ± 2 kg/m3
16964 kPa
  mass density: 721.4 ± 2 kg/m3
16980 kPa
  mass density: 721.5 ± 2 kg/m3
16995 kPa
  mass density: 721.4 ± 2 kg/m3
17043 kPa
  mass density: 721.5 ± 2 kg/m3
17058 kPa
  mass density: 721.4 ± 2 kg/m3
17077 kPa
  mass density: 721.6 ± 2 kg/m3
17095 kPa
  mass density: 721.5 ± 2 kg/m3
17112 kPa
  mass density: 721.4 ± 2 kg/m3
17130 kPa
  mass density: 721.6 ± 2 kg/m3
17141 kPa
  mass density: 721.5 ± 2 kg/m3
17157 kPa
  mass density: 721.6 ± 2 kg/m3
17172 kPa
  mass density: 721.4 ± 2 kg/m3
17190 kPa
  mass density: 721.6 ± 2 kg/m3
17203 kPa
  mass density: 721.6 ± 2 kg/m3
17223 kPa
  mass density: 721.6 ± 2 kg/m3
17241 kPa
  mass density: 721.6 ± 2 kg/m3
17254 kPa
  mass density: 721.7 ± 2 kg/m3
17628 kPa
  mass density: 722 ± 2 kg/m3
18716 kPa
  mass density: 722.8 ± 2 kg/m3
18779 kPa
  mass density: 722.8 ± 2 kg/m3
18862 kPa
  mass density: 722.9 ± 2 kg/m3
18883 kPa
  mass density: 722.8 ± 2 kg/m3
19079 kPa
  mass density: 723 ± 2 kg/m3
19095 kPa
  mass density: 723.2 ± 2 kg/m3
19120 kPa
  mass density: 723 ± 2 kg/m3
19140 kPa
  mass density: 723.1 ± 2 kg/m3
19159 kPa
  mass density: 723.1 ± 2 kg/m3
19176 kPa
  mass density: 723.2 ± 2 kg/m3
19198 kPa
  mass density: 723.2 ± 2 kg/m3
19220 kPa
  mass density: 723.2 ± 2 kg/m3
19240 kPa
  mass density: 723.2 ± 2 kg/m3
19286 kPa
  mass density: 723.3 ± 2 kg/m3
19330 kPa
  mass density: 723.3 ± 2 kg/m3
19527 kPa
  mass density: 723.5 ± 2 kg/m3
19547 kPa
  mass density: 723.4 ± 2 kg/m3
19614 kPa
  mass density: 723.5 ± 2 kg/m3
19699 kPa
  mass density: 723.6 ± 2 kg/m3
